What was measured:
[1] = system: proteolytic activity in the midgut extracts; details: three species of beetles; cited from earlier work
[2] = system: wCRW larvae; experiment: Artificial diet bioassay, neonate wCRW larvae; assay type: in vivo; details: Diabrotica virgifera, 144 h; diet supplemented with 0.01%; mortality at day 6; read-out: % wCRW mortality ± SE
Method: Neonate wCRW larvae are allowed to feed on BioServe, a standard artificial diet used for southern corn rootworm. The diet is supplemented with the treatments indicated below in Table 3. Two or 3 larvae are placed in treatment wells with 9 replicate wells used per treatment. The larvae are allowed to feed on the diet and mortality is evaluated at day 6.

Which results are given for CC(C)C[C@H](NC(=O)[C@H]1O[C@@H]1C(=O)O)C(=O)NCCCCN=C(N)N [E64, [N-(L-3 transcarrboxyoxiran-2-carbonyl)-L-leucyl]-amido(4-guanido)-butane]?
inhibition of proteolytic activity in midgut extracts [1]: much or most of the proteolytic activity in the midgut extracts was inhibited; mortality at 0.01 % [2]: 80 ± 8%
